# Assay results taken from PubChem BioAssay AID2060486 (Molecular Pharmacology Branch, DTP, NCI, 2025).
# pIC50: −log10 of the molar value.
# Test system: IGROV1 complex spheroids (HUVEC, MSC), viability % test/control
# Assay: Anticancer human tumor IGROV1 cell line growth inhibition [GQUAD];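 also: spheroids exposed to compounds for 7 days before readout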;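 as to viability, T/C: 100% = DMSO vehicle control viability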
# Conditions: for pIC50: curve of first compound; for viability, T/C: stronger effect = lower value
# How it was run: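 Viability of tumor cells grown as complex spheroids with endothelial and stromal cells, exposed to drug combinations. Top concentration at or near clinical Cmax (else 10 microM), diluted in half-log increments.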
# [1] = second compound 0.0316 µM, first compound 0.0316 µM
# [2] = second compound 0.0316 µM, first compound 0.1 µM
# [3] = second compound 0.0316 µM, first compound 0.316 µM
# [4] = second compound 0.0316 µM, first compound 1 µM
# [5] = second compound 0.0316 µM, first compound 3.16 µM
# [6] = second compound 0.0316 µM, first compound 10 µM
# [7] = second compound 0.1 µM, first compound 0.0316 µM
# [8] = second compound 0.1 µM, first compound 0.1 µM
# [9] = second compound 0.1 µM, first compound 0.316 µM
# [10] = second compound 0.1 µM, first compound 1 µM
# [11] = second compound 0.1 µM, first compound 3.16 µM
# [12] = second compound 0.1 µM, first compound 10 µM
# [13] = second compound 0.316 µM, first compound 0.0316 µM
# [14] = second compound 0.316 µM, first compound 0.1 µM
# [15] = second compound 0.316 µM, first compound 0.316 µM
# [16] = second compound 0.316 µM, first compound 1 µM
# [17] = second compound 0.316 µM, first compound 3.16 µM
# [18] = second compound 0.316 µM, first compound 10 µM
# [19] = second compound 1 µM, first compound 0.0316 µM
# [20] = second compound 1 µM, first compound 0.1 µM
# [21] = second compound 1 µM, first compound 0.316 µM
# [22] = second compound 1 µM, first compound 1 µM
# [23] = second compound 1 µM, first compound 3.16 µM
# [24] = second compound 1 µM, first compound 10 µM
# [25] = second compound 3.16 µM, first compound 0.0316 µM
# [26] = second compound 3.16 µM, first compound 0.1 µM
# [27] = second compound 3.16 µM, first compound 0.316 µM
# [28] = second compound 3.16 µM, first compound 1 µM
# [29] = second compound 3.16 µM, first compound 3.16 µM
# [30] = second compound 3.16 µM, first compound 10 µM
# [31] = second compound 10 µM, first compound 0.0316 µM
# [32] = second compound 10 µM, first compound 0.1 µM
# [33] = second compound 10 µM, first compound 0.316 µM
# [34] = second compound 10 µM, first compound 1 µM
# [35] = second compound 10 µM, first compound 3.16 µM
# [36] = second compound 10 µM, first compound 10 µM
structure (smiles),measurement,setting,value
COc1cc(C2c3cc4c(cc3C(OC3OC5COC(C)OC5C(O)C3O)C3COC(=O)C23)OCO4)cc(OC)c1O (stereo unspecified) + Cc1[nH]c2ccc(F)cc2c1-c1nc2c3cccnc3c3ncccc3c2[nH]1,pIC50,second compound 0.0316 µM,7.00
same,pIC50,second compound 0.1 µM,6.96
same,pIC50,second compound 0.316 µM,7.12
same,pIC50,second compound 1 µM,> 7.50
same,pIC50,second compound 3.16 µM,> 7.50
same,pIC50,second compound 10 µM,> 7.50
same,"viability, T/C",[1],87.7%
same,"viability, T/C",[2],49.2%
same,"viability, T/C",[3],26.8%
same,"viability, T/C",[4],9.94%
same,"viability, T/C",[5],10.6%
same,"viability, T/C",[6],5.84%
same,"viability, T/C",[7],89.3%
same,"viability, T/C",[8],52.3%
same,"viability, T/C",[9],25.4%
same,"viability, T/C",[10],12%
same,"viability, T/C",[11],9.69%
same,"viability, T/C",[12],6.24%
same,"viability, T/C",[13],68.3%
same,"viability, T/C",[14],44%
same,"viability, T/C",[15],23.7%
same,"viability, T/C",[16],11.6%
same,"viability, T/C",[17],7.51%
same,"viability, T/C",[18],4.85%
same,"viability, T/C",[19],4.67%
same,"viability, T/C",[20],4.98%
same,"viability, T/C",[21],4.59%
same,"viability, T/C",[22],5.09%
same,"viability, T/C",[23],4.85%
same,"viability, T/C",[24],3.15%
same,"viability, T/C",[25],4.03%
same,"viability, T/C",[26],5.21%
same,"viability, T/C",[27],3.82%
same,"viability, T/C",[28],5.26%
same,"viability, T/C",[29],4.55%
same,"viability, T/C",[30],3.18%
same,"viability, T/C",[31],4.92%
same,"viability, T/C",[32],4.45%
same,"viability, T/C",[33],4.88%
same,"viability, T/C",[34],4.78%
same,"viability, T/C",[35],4.32%
same,"viability, T/C",[36],4.34%
COc1cccc2c1C(=O)c1c(O)c3c(c(O)c1C2=O)CC(O)(C(=O)CO)CC3OC1CC(N)C(O)C(C)O1 (stereo unspecified) + Cc1[nH]c2ccc(F)cc2c1-c1nc2c3cccnc3c3ncccc3c2[nH]1,pIC50,second compound 0.0316 µM,7.24
same,pIC50,second compound 0.1 µM,7.34
same,pIC50,second compound 0.316 µM,> 7.50
same,pIC50,second compound 1 µM,> 7.50
same,pIC50,second compound 3.16 µM,> 7.50
same,pIC50,second compound 10 µM,> 7.50
same,"viability, T/C",[1],77.6%
same,"viability, T/C",[2],24.5%
same,"viability, T/C",[3],9.18%
same,"viability, T/C",[4],3.35%
same,"viability, T/C",[5],0.15%
same,"viability, T/C",[6],0.53%
same,"viability, T/C",[7],62.3%
same,"viability, T/C",[8],23.6%
same,"viability, T/C",[9],10.5%
same,"viability, T/C",[10],4.39%
same,"viability, T/C",[11],0.11%
same,"viability, T/C",[12],0.5%
same,"viability, T/C",[13],34.7%
same,"viability, T/C",[14],21.4%
same,"viability, T/C",[15],7.11%
same,"viability, T/C",[16],4.13%
same,"viability, T/C",[17],0.18%
same,"viability, T/C",[18],0.43%
same,"viability, T/C",[19],4.23%
same,"viability, T/C",[20],5.09%
same,"viability, T/C",[21],3.51%
same,"viability, T/C",[22],1.63%
same,"viability, T/C",[23],0.1%
same,"viability, T/C",[24],0.52%
same,"viability, T/C",[25],3.48%
same,"viability, T/C",[26],5.09%
same,"viability, T/C",[27],3.34%
same,"viability, T/C",[28],1.41%
same,"viability, T/C",[29],0.08%
same,"viability, T/C",[30],0.36%
same,"viability, T/C",[31],4.02%
same,"viability, T/C",[32],3.99%
same,"viability, T/C",[33],2.84%
same,"viability, T/C",[34],1.32%
same,"viability, T/C",[35],0.18%
same,"viability, T/C",[36],0.42%
Nc1ccn(C2OC(CO)C(O)C2(F)F)c(=O)n1 (stereo unspecified) + Cc1[nH]c2ccc(F)cc2c1-c1nc2c3cccnc3c3ncccc3c2[nH]1,pIC50,second compound 0.0316 µM,> 7.50
same,pIC50,second compound 0.1 µM,> 7.50
same,pIC50,second compound 0.316 µM,> 7.50
same,pIC50,second compound 1 µM,> 7.50
same,pIC50,second compound 3.16 µM,> 7.50
same,pIC50,second compound 10 µM,> 7.50
same,"viability, T/C",[1],10.5%
same,"viability, T/C",[2],6.29%
same,"viability, T/C",[3],5.85%
same,"viability, T/C",[4],6.52%
same,"viability, T/C",[5],6.69%
same,"viability, T/C",[6],5.57%
same,"viability, T/C",[7],18%
same,"viability, T/C",[8],6.64%
same,"viability, T/C",[9],5.87%
same,"viability, T/C",[10],5.31%
same,"viability, T/C",[11],5.55%
same,"viability, T/C",[12],6.59%
same,"viability, T/C",[13],11.5%
same,"viability, T/C",[14],6.38%
same,"viability, T/C",[15],6.31%
same,"viability, T/C",[16],6.72%
same,"viability, T/C",[17],6.12%
same,"viability, T/C",[18],5.22%
same,"viability, T/C",[19],4.26%
same,"viability, T/C",[20],5%
same,"viability, T/C",[21],3.88%
same,"viability, T/C",[22],3.77%
same,"viability, T/C",[23],3.84%
same,"viability, T/C",[24],3.25%
same,"viability, T/C",[25],5.06%
same,"viability, T/C",[26],4.43%
same,"viability, T/C",[27],3.62%
same,"viability, T/C",[28],4.5%
same,"viability, T/C",[29],4.02%
same,"viability, T/C",[30],2.81%
same,"viability, T/C",[31],3.58%
same,"viability, T/C",[32],4.69%
same,"viability, T/C",[33],4.1%
same,"viability, T/C",[34],4.26%
same,"viability, T/C",[35],3.44%
same,"viability, T/C",[36],2.86%
